From paper PMC7112044 (Bioorganic Chemistry, 2008) come the findings set out here.

Where two headings read alike, the source gives them in different places. Where only a bound is given, the exact number is not on record here.

In one test the target is SARS 3CL^pro (Severe acute respiratory syndrome coronavirus, UniProt P0C6X7). The experiment in a line: biochemical. The format is biochemical, SARS-CoV.
Another test addresses 3CL^pro (Severe acute respiratory syndrome coronavirus, UniProt P0C6X7). It is filed as binding, SARS-CoV.
Setting [1] is: pH 7, read-out: Inhibition (100 μM).

With “2-(5-Bromopyridin-3-yl)-2,2-difluoro-1-(furan-2- yl)ethanone [Compound 12c]”, on SARS 3CL^pro (pH 7), the “Inhibition (100 μM)” value came to 21%.

For `O=C(c1cccs1)C(F)c1cccnc1` (centres unmarked) [Compound 6, 2-Fluoro-2-(pyridin-3-yl)-1-(thiophen-2-yl)ethanone], on SARS 3CL^pro, the “change of inhibition after 2 h preincubation with 3CL^pro” value is listed as “no improved inhibition”. In addition, at SARS 3CL^pro (setting [1]), the inhibition at 100 µM was determined as 10%.

Turning to `O=C(c1cccs1)C(F)(F)c1cccnc1` [Compound 7, 2,2-difluoro-2-(pyridin-3-yl)-1-(thiophen-2-yl)ethanone], on SARS 3CL^pro, the “change of inhibition after 2 h preincubation with 3CL^pro” value was “no improved inhibition” and the “potency of inhibition relative to pyridinyl ester 1” value is recorded as 2- to 3 fold. Further, the inhibition at 100 µM on SARS 3CL^pro (setting [1]) was 38%.

Take `O=C(Cc1cncc(Cl)c1)c1ccco1` [Compound 11a, 2-(5-Chloropyridin-3-yl)-1-(furan-2-yl)ethanone]: the inhibition at 100 µM at SARS 3CL^pro (read-out: Inhibition (100 μM)) was under 10%.

Take `O=C(Cc1cccc(Cl)c1)c1ccco1` [Compound 11b, 2-(3-Chlorophenyl)-1-(furan-2-yl)ethanone]: at SARS 3CL^pro (read-out: Inhibition (100 μM)), the inhibition at 100 µM is under 10%.

Consider `O=C(Cc1cncc(Br)c1)c1ccco1` [Compound 11c, 2-(5-Bromopyridin-3-yl)-1-(furan-2-yl)ethanone], for which the inhibition at 100 µM on SARS 3CL^pro (read-out: Inhibition (100 μM)) was under 10%.

Regarding `O=C(Cc1cncc(Br)c1)c1ccc(-c2ccc(Cl)cc2)o1` [Compound 11d, 2-(5-Bromopyridin-3-yl)-1-(5-(4-chlorophenyl)furan-2-yl)ethanone], the “mass change in the major mass peak of 3CL^pro” value (from here on “mass change”) on 3CL^pro is on record as “no mass change”. Also, the “change of inhibitory activity after 2 h preincubation with 3CL^pro” value (“change of inhibitory activity” below) at SARS 3CL^pro is given as “no improved inhibitory activity”.

As for `O=C(c1ccco1)C(F)c1cncc(Cl)c1` (centres unmarked) [Compound 12a, 2-(5-Chloropyridin-3-yl)-2-fluoro-1-(furan-2-yl)ethanone], the inhibition at 100 µM at SARS 3CL^pro (setting [1]) came to 14%.

Consider `O=C(c1ccco1)C(F)c1cccc(Cl)c1` (centres unmarked) [Compound 12b, 2-(3-Chlorophenyl)-2-fluoro-1-(furan-2-yl)ethanone], for which, at SARS 3CL^pro (setting [1]), the inhibition at 100 µM stood at 15%.

For the compound `O=C(c1ccc(-c2ccc(Cl)cc2)o1)C(F)c1cncc(Br)c1` (centres unmarked) [Compound 12d, 2-(5-Bromopyridin-3-yl)-1-(5-(4-chlorophenyl)furan-2-yl)-2-fluoroethanone], the “mass change” value at 3CL^pro was “no mass change”. Moreover, the “change of inhibitory activity” value on SARS 3CL^pro is reported as “no improved inhibitory activity”.

Consider `O=C(c1ccco1)C(F)(F)c1cncc(Cl)c1` [Compound 13a, 2-(5-Chloropyridin-3-yl)-2,2-difluoro-1-(furan-2-yl)ethanone], for which the inhibition at 100 µM on SARS 3CL^pro (setting [1]) amounted to 27%.

As for `O=C(c1ccco1)C(F)(F)c1cccc(Cl)c1` [Compound 13b, 2-(3-Chlorophenyl)-2,2-difluoro-1-(furan-2-yl)ethanone], the inhibition at 100 µM on SARS 3CL^pro (setting [1]) came to 13%.

With `O=C(c1ccc(-c2ccc(Cl)cc2)o1)C(F)(F)c1cncc(Br)c1` [Compound 13d, 2-(5-Bromopyridin-3-yl)-1-(5-(4-chlorophenyl)furan-2-yl)-2,2-difluoroethanone], on 3CL^pro, the “mass change” value was “no mass change”. The “change of inhibitory activity” value on SARS 3CL^pro is given as “no improved inhibitory activity”.

For the compound `O=C(Cc1cncc(Br)c1)c1cc(-c2ccc(Cl)cc2)on1` [Compound 28, 2-(5-Bromopyridin-3-yl)-1-(5-(4-chlorophenyl)isoxazol-3-yl)ethanone], the inhibition at 100 µM on SARS 3CL^pro (setting [1]) worked out at 35%.

The inhibition is the share of the control response that was lost under treatment.
